Measured values from PMC11989707, “Synthesis, Characterization, and Preliminary In Vitro Anticancer Activity of Zinc Complexes Containing Amino Acid-Derived Imidazolium-Based Dicarboxylate Ligands” (International Journal of Molecular Sciences, 2025).
Read-outs that look alike come from different tables or passages of the source.

Key:
[1] = tested on: A549 (human lung adenocarcinoma); assay: Resazurin cell viability assay, lung adenocarcinoma; type: cell-based; conditions: for IC50: resazurin
Method: (§1) The cytotoxicity of complexes 2 was evaluated in vitro by determining the half inhibitory concentrations (IC50) against four human cell lines: wild-type BRAF melanoma (MeWo), lung adenocarcinoma (A549), bladder cancer (T24), and non-cancerous skin keratinocytes (HaCaT). The IC50 values were calculated from cell viability values obtained after 72 h of exposure of the drug to cells using the resazurin assay. The viability results, summarized in Table 1 (as μM concentrations) and illustrated in Figure 4, also include the values of the selectivity index (SI). The SI was calculated by dividing the IC50 value in the non-cancerous cells by that in the cancer cells. The higher the SI value, the higher the selectivity of the compound against cancer cells. This parameter also allows for a comparison of the selectivity of the investigated compound with the selectivity of the standard anticancer drug. For comparison, the cytotoxicity of two clinical anticancer drugs, carboplatin and gemcitabine, as well as imidazolium dicarboxylate precursor ligands (HL^R, 1) was evaluated under identical experimental conditions (see viability graphs in Figure 4 and Figure S7). […] Two noteworthy observations can be drawn from Table 1. […] Carboplatin is used for the treatment of ovarian cancer, lung cancer, bladder cancer, and head and neck cancer. Second, these zinc-based complexes were more cytotoxic to cancer cells than to non-malignant HaCaT cells, underscoring their potential therapeutic selectivity.
(§2) HaCaT cells (human keratinocytes) A549 (human lung adenocarcinoma), MeWo (human melanoma), and T24 (human urinary bladder carcinoma) were purchased from Cell Lines Service (CLS). The cells were maintained in Dulbecco’s Modified Eagle Medium (DMEM) supplemented with 10% fetal bovine serum and 1% penicillin/streptomycin. All cell lines were cultured at 37 °C and 5% CO2 with saturating humidity.
(§3) The resazurin assay is a commonly used colorimetric/fluorescent method to assess cell viability. This approach is based on the ability of living cells to convert the blue dye resazurin into the pink soluble resorufin product. The number of viable cells is directly correlated with the amount of resorufin generated. Between 3000 and 6000 cells per well were seeded in 96-well plates and allowed to grow for 24 h. […] The compounds were dissolved in sterile water to prepare a stock solution. Working solutions were obtained by serial dilution in the culture medium and were used immediately to treat the cells. Following this treatment period, the cells were rinsed once with phosphate buffered saline (PBS), and 150 μL of resazurin solution (20 µg/mL in medium) was added to each well. The plates were then incubated for 4–5 h at 37 °C with 5% CO2. Finally, absorbance was measured at 540 and 620 nm using a multiwell plate spectrophotometer (Imark Bio Rad Laboratories Inc., Hercules, CA, USA). The results were reported as percentages of cell viability compared to untreated controls. All data represent the mean ± standard error of the mean (SEM) of at least three independent experiments. The selectivity index (SI) values for each cancer cell line were determined by calculating the ratio of the IC50 value in the non-malignant HaCaT cell line to the IC50 value in the corresponding cancer cell line, based on data from each independent experiment.

MeWo (human melanoma) = assay: Resazurin cell viability assay, melanoma; type: cell-based; conditions: for IC50: resazurin; for Selectivity Index MeWo: IC50 HaCaT / IC50 MeWo
Method: as §1, with “The IC50 values were calculated from cell viability values obtained after 72 h of exposure of the drug to cells using the resazurin assay.” left out
as §2, §3

[2] = tested on: T24 (human urinary bladder carcinoma); assay: Resazurin cell viability assay, bladder cancer; type: cell-based; conditions: for IC50: resazurin
Method: as §1, with “The IC50 values were calculated from cell viability values obtained after 72 h of exposure of the drug to cells using the resazurin assay.” left out
as §2, §3

[3] = tested on: HaCaT cells (human keratinocytes); assay: Resazurin cell viability assay, non-malignant keratinocytes; type: cell-based; conditions: resazurin
Method: as §1, §2, §3

[4] = as above; type: cell-based, human; conditions: human, HaCaT keratinocytes (non-malignant); HaCaT, highest concentrations tested, 72 h (Figure 4); read-out: viability of non-malignant cells
Method: as §1, §2, §3

[5] = IC50 HaCaT / IC50 A549, 72 h, mean ± SEM
[6] = IC50 HaCaT / IC50 A549, 96 h, mean ± SEM (Table S3)
[7] = IC50 HaCaT / IC50 T24, 72 h, mean ± SEM
[8] = 96 h, mean ± SEM (Table S3), read-out: IC50 HaCaT (Non-malignant keratinocyte)
[9] = Homo sapiens, A549, 96 h, mean ± SEM (Table S3)
[10] = Homo sapiens, MeWo, 96 h, mean ± SEM (Table S3)
[11] = Homo sapiens, 96 h, mean ± SEM (Table S3)
[12] = IC50 HaCaT / IC50 T24, 96 h, mean ± SEM (Table S3)
[13] = Homo sapiens, HaCaT, 96 h, mean ± SEM (Table S3), read-out: IC50 HaCaT (Non-malignant keratinocyte)

IC50 [1, 9] [nM]	IC50 (MeWo (human melanoma); [10]) [nM]	IC50 [2, 11] [nM]	Compound	Selectivity Index A549 [1, 6]	Selectivity Index MeWo (MeWo (human melanoma); 96 h, mean ± SEM (Table S3))	Selectivity Index T24 [2, 12]	IC50 [3, 13] [nM]	further results
1900 ± 700	1300	6300 ± 600	O=c1[nH]cc(F)c(=O)[nH]1 [5-Fluorouracil]	0.3 ± 0.1	0.3 ± 0.0	0.1 ± 0.0	400	–
1500 ± 700	900 ± 400	1900 ± 1100	CCN(CC)CCNC(=O)c1c(C)[nH]c(/C=C2\C(=O)Nc3ccc(F)cc32)c1C [Sunitinib]	1.2 ± 0.6	1.5 ± 0.5	1.5 ± 0.8	1000 ± 100	–

The remaining lines, values behind:

Compound	IC50 [1, 9] [nM]	IC50 (MeWo (human melanoma); [10]) [nM]	IC50 [2, 11] [nM]	Selectivity Index A549 [1, 6]	Selectivity Index MeWo (MeWo (human melanoma); 96 h, mean ± SEM (Table S3))	Selectivity Index T24 [2, 12]	IC50 [3, 13] [nM]	further results
N.N.O=C([O-])C1(C(=O)[O-])CCC1.[Pt+2] [Carboplatin]	–	–	–	0.6 ± 0.2	0.6 ± 0.2	–	–	IC50 ([1]; 72 h, mean ± SEM): 42900 ± 1400 nM; IC50 ([1]; 96 h, mean ± SEM (Table S3)): 21100 ± 4000 nM; Selectivity Index A549 [1, 5]: 0.8 ± 0.1; IC50 (MeWo (human melanoma); 72 h, mean ± SEM): 100000 ± 17400 nM; IC50 (MeWo (human melanoma); 96 h, mean ± SEM (Table S3)): 23000 ± 5500 nM; Selectivity Index MeWo (MeWo (human melanoma); 72 h, mean ± SEM): 0.4 ± 0.0; IC50 ([2]; 72 h, mean ± SEM): 22100 ± 2600 nM; IC50 ([2]; 96 h, mean ± SEM (Table S3)): 7300 ± 1100 nM; Selectivity Index T24 [2, 7]: 1.7 ± 0.2; IC50 ([3]; 72 h, mean ± SEM, monomer molecular weight used, read-out: IC50 HaCaT (Non-Malignant Keratinocyte)): 35900 ± 3800 nM; IC50 [3, 8]: 11400 ± 1000 nM
CC(=O)O[C@H]1C(=O)[C@@]2(C)[C@H]([C@H](OC(=O)c3ccccc3)[C@]3(O)C[C@H](OC(=O)[C@H](O)[C@@H](NC(=O)c4ccccc4)c4ccccc4)C(C)=C1C3(C)C)[C@]1(OC(C)=O)CO[C@@H]1C[C@@H]2O [Paclitaxel]	3.5 ± 0.9	0.7	1.4 ± 0.3	0.1 ± 0.0	0.5 ± 0.0	0.3 ± 0.1	0.3	–
N.N.[Cl][Pt][Cl] [Cisplatin]	–	–	–	0.6 ± 0.1	1.0 ± 0.0	1.3 ± 0.0	–	IC50 ([1]; 96 h, mean ± SEM (Table S3)): 3800 ± 100 nM; IC50 (MeWo (human melanoma); 96 h, mean ± SEM (Table S3)): 2200 ± 600 nM; IC50 ([2]; 96 h, mean ± SEM (Table S3)): 1600 ± 400 nM; IC50 [3, 8]: 2200 ± 500 nM
Nc1ccn([C@@H]2O[C@H](CO)[C@@H](O)C2(F)F)c(=O)n1 [Gemcitabine]	1.9 ± 1.5	1.9 ± 1.5	1.7 ± 1.5	5.1 ± 0.3	5.1 ± 0.2	6.5 ± 1.4	10.6 ± 4.3	IC50 ([1]; Homo sapiens, A549, 72 h, mean ± SEM): 5.6 ± 0.1 nM; Selectivity Index A549 [1, 5]: 4.0 ± 0.5; IC50 (MeWo (human melanoma); Homo sapiens, MeWo, 72 h, mean ± SEM): 7.3 ± 0.7 nM; Selectivity Index MeWo (MeWo (human melanoma); 72 h, mean ± SEM): 3.3 ± 0.8; cell viability of melanoma cells (MeWo (human melanoma); MeWo, highest concentrations tested, 72 h (Figure 4)): ≥ 35%; IC50 ([2]; Homo sapiens, 72 h, mean ± SEM): 2.3 ± 0.3 nM; Selectivity Index T24 [2, 7]: 9.3 ± 0.4; viability at 72 h [4]: 13%; IC50 ([3]; Homo sapiens, HaCaT, 72 h, mean ± SEM, read-out: IC50 HaCaT (Non-Malignant Keratinocyte)): 22.1 ± 3.1 nM
COc1cccc2c1C(=O)c1c(O)c3c(c(O)c1C2=O)C[C@@](O)(C(=O)CO)C[C@@H]3O[C@H]1C[C@H](N)[C@H](O)[C@H](C)O1 [Doxorubicin]	38.4 ± 6.6	15.3 ± 3.6	29.8 ± 2	0.2 ± 0.0	0.6 ± 0.1	0.3 ± 0.0	8.1	–
